Experimental data taken from the supplement of paper PMC10627819.
≈ marks a conversion by molar mass, not a printed value.

Assays:
S. aureus Newman [1] = test system: S. aureus Newman
S. aureus DSM 20231 [2] = test system: S. aureus DSM 20231
B. subtilis 168 [3] = assay: fitness (endpoint OD595 vs no drug) (fraction); higher = more growth
Procedure, shortened: (§1)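 In 384-well plates at 37 °C, cultures began at OD595 0.01 in 30 µl, with 55 µl used for S. pneumoniae. OD595 readings every 30 min for 14 h were corrected by the first reading. Fitness divides the stationary-phase transition optical density by the robust mean of no-drug control wells. The result is capped at 1.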

S. aureus Newman [4] = assay: as above
Procedure, shortened: as §1

S. pneumoniae D39V [5] = assay: as above
Procedure, shortened: as §1

S. aureus DSM 20231 [6] = assay: as above
Procedure, shortened: as §1

S. pneumoniae D39V [7] = test system: S. pneumoniae D39V
B. subtilis 168 [8] = test system: B. subtilis 168

`CC(=O)OC[C@H]1O[C@@H]([S-])[C@H](OC(C)=O)[C@@H](OC(C)=O)[C@@H]1OC(C)=O.CCP(CC)CC.[Au+]` [Auranofin] showed an MIC (S. aureus Newman [1]) of 0.5 µg/mL and an MIC (S. aureus DSM 20231 [2]) of 0.5 µg/mL.
Molecule `O=C(N[C@H](CO)[C@H](O)c1ccc([N+](=O)[O-])cc1)C(Cl)Cl` [Chloramphenicol] has a fitness (B. subtilis 168 [3]; 0.5 µg/mL) of 0.834, a fitness (B. subtilis 168 [3]; 1 µg/mL) of 0.659 and a fitness (S. aureus Newman [4]; 0.75 µg/mL) of 0.804. For the same molecule, the fitness (S. aureus Newman [4]; 1.5 µg/mL) was 0.514, the fitness (S. aureus Newman [4]; 3 µg/mL) was 0.126 and the fitness (S. pneumoniae D39V [5]; 0.375 µg/mL) was 0.893. The fitness (S. pneumoniae D39V [5]; 0.75 µg/mL) was 0.722, the fitness (S. pneumoniae D39V [5]; 1.5 µg/mL) was 0.407 and the fitness (S. aureus DSM 20231 [6]; 0.75 µg/mL) was 0.878. The fitness (S. aureus DSM 20231 [6]; 1.5 µg/mL) was 0.711, the fitness (S. aureus DSM 20231 [6]; 3 µg/mL) was 0.0899 and the MIC (S. aureus Newman [1]) was 3 µg/mL (≈ 9.28 µM). For the same molecule, the MIC (S. pneumoniae D39V [7]) was 2 µg/mL (≈ 6.19 µM) and the MIC (S. aureus DSM 20231 [2]) was 3.5 µg/mL (≈ 10.8 µM).
Molecule `CC[C@H]1OC(=O)[C@H](C)[C@@H](O[C@H]2C[C@@](C)(OC)[C@@H](O)[C@H](C)O2)[C@H](C)[C@@H](O[C@@H]2O[C@H](C)C[C@H](N(C)C)[C@H]2O)[C@](C)(OC)C[C@@H](C)C(=O)[C@H](C)[C@@H](O)[C@]1(C)O` [Clarithromycin] has a fitness (S. pneumoniae D39V [5]; 0.0625 µg/mL) of 0.568, a fitness (S. pneumoniae D39V [5]; 0.125 µg/mL) of 0.346 and a fitness (S. pneumoniae D39V [5]; 0.25 µg/mL) of 0.148. It also gave a fitness (S. aureus DSM 20231 [6]; 0.0585 µg/mL) of 0.94, a fitness (S. aureus DSM 20231 [6]; 0.117 µg/mL) of 0.691 and a fitness (S. aureus DSM 20231 [6]; 0.234 µg/mL) of 0.0857. For the same molecule, the MIC (S. aureus Newman [1]) was 0.5 µg/mL (≈ 0.668 µM), the MIC (S. pneumoniae D39V [7]) was 0.5 µg/mL (≈ 0.668 µM) and the MIC (S. aureus DSM 20231 [2]) was 0.234 µg/mL (≈ 0.313 µM).
`CCC[C@@H]1C[C@@H](C(=O)N[C@@H]([C@H]2O[C@H](SC)[C@H](O)[C@@H](O)[C@H]2O)[C@H](C)Cl)N(C)C1` [Clindamycin] gave a fitness (B. subtilis 168 [3]; 0.0625 µg/mL) of 0.596, a fitness (B. subtilis 168 [3]; 0.125 µg/mL) of 0.432 and a fitness (B. subtilis 168 [3]; 0.25 µg/mL) of 0.393. The fitness (S. aureus Newman [4]; 0.0312 µg/mL) was 0.775, the fitness (S. aureus Newman [4]; 0.0625 µg/mL) was 0.432 and the fitness (S. aureus Newman [4]; 0.125 µg/mL) was 0.108. It also gave a fitness (S. pneumoniae D39V [5]; 0.015 µg/mL) of 0.869, a fitness (S. pneumoniae D39V [5]; 0.03 µg/mL) of 0.682 and a fitness (S. pneumoniae D39V [5]; 0.06 µg/mL) of 0.456. The fitness (S. aureus DSM 20231 [6]; 0.0312 µg/mL) was 0.747, the fitness (S. aureus DSM 20231 [6]; 0.0625 µg/mL) was 0.246 and the fitness (S. aureus DSM 20231 [6]; 0.125 µg/mL) was 0.0653. For the same molecule, the MIC (B. subtilis 168 [8]) was 1 µg/mL (≈ 2.35 µM), the MIC (S. aureus Newman [1]) was 0.125 µg/mL (≈ 0.294 µM) and the MIC (S. pneumoniae D39V [7]) was 0.125 µg/mL (≈ 0.294 µM). It also gave an MIC (S. aureus DSM 20231 [2]) of 0.125 µg/mL (≈ 0.294 µM).
With `N[C@@H]1CONC1=O` [Cycloserine D] the fitness (B. subtilis 168 [3]; 0.125 µg/mL) was 0.963, the fitness (B. subtilis 168 [3]; 0.25 µg/mL) was 0.948 and the fitness (B. subtilis 168 [3]; 0.5 µg/mL) was 0.966. For the same molecule, the fitness (S. aureus Newman [4]; 0.375 µg/mL) was at least 1, the fitness (S. aureus Newman [4]; 0.75 µg/mL) was at least 1 and the fitness (S. aureus Newman [4]; 1.5 µg/mL) was 0.983. The fitness (S. pneumoniae D39V [5]; 2.188 µg/mL) was 0.872, the fitness (S. pneumoniae D39V [5]; 4.375 µg/mL) was 0.81 and the fitness (S. pneumoniae D39V [5]; 8.75 µg/mL) was 0.533. For the same molecule, the fitness (S. aureus DSM 20231 [6]; 0.375 µg/mL) was at least 1, the fitness (S. aureus DSM 20231 [6]; 0.75 µg/mL) was at least 1 and the fitness (S. aureus DSM 20231 [6]; 1.5 µg/mL) was at least 1. For the same molecule, the MIC (B. subtilis 168 [8]) was 0.5 µg/mL (≈ 4.9 µM), the MIC (S. aureus Newman [1]) was 1.5 µg/mL (≈ 14.7 µM) and the MIC (S. pneumoniae D39V [7]) was 8.75 µg/mL (≈ 85.7 µM). It also gave an MIC (S. aureus DSM 20231 [2]) of 1.5 µg/mL (≈ 14.7 µM).
In the case of `O=C(O[C@@H]1Cc2c(O)cc(O)cc2O[C@@H]1c1cc(O)c(O)c(O)c1)c1cc(O)c(O)c(O)c1` [EGCG], the fitness (B. subtilis 168 [3]; 6.25 µg/mL) is reported as 0.91, the fitness (B. subtilis 168 [3]; 12.5 µg/mL) is reported as 0.709 and the fitness (B. subtilis 168 [3]; 25 µg/mL) is reported as 0.34. For the same molecule, the fitness (S. aureus Newman [4]; 12.5 µg/mL) was 0.778, the fitness (S. aureus Newman [4]; 25 µg/mL) was 0.714 and the fitness (S. aureus Newman [4]; 50 µg/mL) was 0.671. For the same molecule, the fitness (S. pneumoniae D39V [5]; 12.5 µg/mL) was 0.946, the fitness (S. pneumoniae D39V [5]; 25 µg/mL) was 0.964 and the fitness (S. pneumoniae D39V [5]; 50 µg/mL) was 0.987. The fitness (S. aureus DSM 20231 [6]; 12.5 µg/mL) was 0.841, the fitness (S. aureus DSM 20231 [6]; 25 µg/mL) was 0.776 and the fitness (S. aureus DSM 20231 [6]; 50 µg/mL) was 0.795. For the same molecule, the MIC (B. subtilis 168 [8]) was 50 µg/mL (≈ 109 µM), the MIC (S. aureus Newman [1]) was 50 µg/mL (≈ 109 µM) and the MIC (S. pneumoniae D39V [7]) was 400 µg/mL (≈ 873 µM). It also gave an MIC (S. aureus DSM 20231 [2]) of 50 µg/mL (≈ 109 µM).
`CC(=O)O[C@H]1C[C@@]2(C)[C@@H](C[C@@H](O)[C@H]3[C@@]4(C)CC[C@@H](O)[C@@H](C)[C@@H]4CC[C@@]32C)/C1=C(\CCC=C(C)C)C(=O)O` [Fusidic acid] showed an MIC (B. subtilis 168 [8]) of 0.5 µg/mL (≈ 0.968 µM), an MIC (S. aureus Newman [1]) of 0.139 µg/mL (≈ 0.269 µM) and an MIC (S. pneumoniae D39V [7]) of 4 µg/mL (≈ 7.74 µM).
`C[C@@H](O)[C@H]1C(=O)N2C(C(=O)O)=C(SCCNC=N)C[C@H]12` [Imipenem] was tested, and the fitness (B. subtilis 168 [3]; 0.0625 µg/mL) was 0.857, the fitness (B. subtilis 168 [3]; 0.125 µg/mL) was 0.751 and the fitness (B. subtilis 168 [3]; 0.25 µg/mL) was 0.466. The fitness (S. pneumoniae D39V [5]; 0.005 µg/mL) was 0.961, the fitness (S. pneumoniae D39V [5]; 0.01 µg/mL) was 0.95 and the fitness (S. pneumoniae D39V [5]; 0.02 µg/mL) was 0.943. The MIC (B. subtilis 168 [8]) was 0.5 µg/mL (≈ 1.67 µM) and the MIC (S. pneumoniae D39V [7]) was 0.062 µg/mL (≈ 0.207 µM).
With `CCC[C@@H]1C[C@@H](C(=O)N[C@@H]([C@H]2O[C@H](SC)[C@H](O)[C@@H](O)[C@H]2O)[C@@H](C)O)N(C)C1` [Lincomycin] the fitness (B. subtilis 168 [3]; 0.1 µg/mL) was 0.862, the fitness (B. subtilis 168 [3]; 0.2 µg/mL) was 0.823 and the fitness (B. subtilis 168 [3]; 0.4 µg/mL) was 0.852. It also gave a fitness (B. subtilis 168 [3]; 0.8 µg/mL) of 0.878, a fitness (B. subtilis 168 [3]; 1.6 µg/mL) of 0.854 and a fitness (S. pneumoniae D39V [5]; 0.2 µg/mL) of 0.648. The fitness (S. pneumoniae D39V [5]; 0.4 µg/mL) was 0.432, the fitness (S. pneumoniae D39V [5]; 0.8 µg/mL) was 0.211 and the fitness (S. aureus DSM 20231 [6]; 0.1 µg/mL) was 0.932. It also gave a fitness (S. aureus DSM 20231 [6]; 0.2 µg/mL) of 0.767, a fitness (S. aureus DSM 20231 [6]; 0.4 µg/mL) of 0.315 and an MIC (S. aureus Newman [1]) of 0.4 µg/mL (≈ 0.984 µM). It also gave an MIC (S. pneumoniae D39V [7]) of 1.6 µg/mL (≈ 3.94 µM) and an MIC (S. aureus DSM 20231 [2]) of 0.4 µg/mL (≈ 0.984 µM).
For `COc1c(N2C[C@@H]3CCCN[C@@H]3C2)c(F)cc2c(=O)c(C(=O)O)cn(C3CC3)c12` [Moxifloxacin], the fitness (B. subtilis 168 [3]; 0.0312 µg/mL) was 0.0397, the fitness (B. subtilis 168 [3]; 0.0625 µg/mL) was 0.0388 and the fitness (B. subtilis 168 [3]; 0.125 µg/mL) was 0.0181. The fitness (B. subtilis 168 [3]; 2 µg/mL) was 0.0291, the fitness (B. subtilis 168 [3]; 4 µg/mL) was 0.0224 and the fitness (B. subtilis 168 [3]; 8 µg/mL) was 0.0114. The fitness (S. aureus Newman [4]; 0.0075 µg/mL) was 0.748, the fitness (S. aureus Newman [4]; 0.015 µg/mL) was 0.642 and the fitness (S. aureus Newman [4]; 0.03 µg/mL) was 0.0899. It also gave a fitness (S. pneumoniae D39V [5]; 0.0037 µg/mL) of 0.9, a fitness (S. pneumoniae D39V [5]; 0.0075 µg/mL) of 0.916 and a fitness (S. pneumoniae D39V [5]; 0.015 µg/mL) of 0.862. The fitness (S. pneumoniae D39V [5]; 0.0312 µg/mL) was 0.134, the fitness (S. pneumoniae D39V [5]; 0.0625 µg/mL) was 0.088 and the fitness (S. pneumoniae D39V [5]; 0.125 µg/mL) was 0.0638. The fitness (S. aureus DSM 20231 [6]; 0.0075 µg/mL) was 0.888, the fitness (S. aureus DSM 20231 [6]; 0.015 µg/mL) was 0.824 and the fitness (S. aureus DSM 20231 [6]; 0.03 µg/mL) was 0.665. It also gave an MIC (S. aureus Newman [1]) of 0.033 µg/mL (≈ 0.0822 µM), an MIC (S. pneumoniae D39V [7]) of 0.25 µg/mL (≈ 0.623 µM) and an MIC (S. aureus DSM 20231 [2]) of 0.033 µg/mL (≈ 0.0822 µM).
